Experimental data from PubChem BioAssay AID248 (DTP/NCI, 2004).
Values joined by “and” are separate entries in the source; they are usually repeats but may differ in a detail not shown here. Equal entries are not always repeated. Toxic doses and inconclusive results are not listed. No stated cut-off is given here; in the data, active means T/C of 150% or more; inactive means T/C below 125%.

Tested on: L1210 leukemia ip in BDF1 mice, survival T/C
Test: NCI In Vivo Anticancer Drug Screen. Data for tumor model L1210 Leukemia (intraperitoneal) in B6D2F1 (BDF1) mice
Details: endpoint: mean survival time, higher = longer survival
Method in brief: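 Each compound was tested against a transplantable tumor grown in mice. The endpoint was survival, with treated animals benchmarked against vehicle controls as a simple ratio.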

[1] = dose: 100.0 mg/kg/injection, schedule: Q01DX001 (ip), vehicle: saline
[2] = dose: 200.0 mg/kg/injection, schedule: Q01DX001 (ip), vehicle: saline
[3] = dose: 400.0 mg/kg/injection, schedule: Q01DX001 (ip), vehicle: saline
[4] = dose: 100.0 mg/kg/injection, schedule: Q04DX003 (ip), vehicle: Klucel (hydroxypropylcellulose) (HPC)
[5] = dose: 200.0 mg/kg/injection, schedule: Q04DX003 (ip), vehicle: Klucel (hydroxypropylcellulose) (HPC)
[6] = dose: 400.0 mg/kg/injection, schedule: Q04DX003 (ip), vehicle: Klucel (hydroxypropylcellulose) (HPC)
[7] = dose: 100.0 mg/kg/injection, schedule: Q01DX009 (ip), vehicle: saline with Tween-80
[8] = dose: 200.0 mg/kg/injection, schedule: Q01DX009 (ip), vehicle: saline with Tween-80
[9] = dose: 400.0 mg/kg/injection, schedule: Q01DX009 (ip), vehicle: saline with Tween-80
[10] = dose: 100.0 mg/kg/injection, schedule: Q01DX009 (ip), vehicle: saline
[11] = dose: 100.0 mg/kg/injection, schedule: Q04DX003 (ip), vehicle: saline with Tween-80
[12] = dose: 200.0 mg/kg/injection, schedule: Q01DX009 (ip), vehicle: saline
[13] = dose: 200.0 mg/kg/injection, schedule: Q04DX003 (ip), vehicle: saline with Tween-80
[14] = dose: 400.0 mg/kg/injection, schedule: Q01DX009 (ip), vehicle: saline
[15] = dose: 400.0 mg/kg/injection, schedule: Q04DX003 (ip), vehicle: saline with Tween-80
[16] = dose: 100.0 mg/kg/injection, schedule: Q01DX001 (ip), vehicle: other
[17] = dose: 200.0 mg/kg/injection, schedule: Q01DX001 (ip), vehicle: other
[18] = dose: 400.0 mg/kg/injection, schedule: Q01DX001 (ip), vehicle: other
[19] = dose: 50.0 mg/kg/injection, schedule: Q01DX001 (ip), vehicle: carboxymethylcellulose (CMC)
[20] = dose: 100.0 mg/kg/injection, schedule: Q01DX001 (ip), vehicle: carboxymethylcellulose (CMC)
[21] = dose: 200.0 mg/kg/injection, schedule: Q01DX001 (ip), vehicle: carboxymethylcellulose (CMC)

Measured: T/C

CCc1nc(N)nc(N)c1-c1ccc(N(CCCl)CCCl)cc1
inactive: dose: 13.0 mg/kg/injection, schedule: Q01DX Z (ip), vehicle: methylcellulose (MC) 108 % of control | dose: 20.0 mg/kg/injection, schedule: Q01DX Z (ip), vehicle: methylcellulose (MC) 103 % of control | dose: 30.0 mg/kg/injection, schedule: Q01DX Z (ip), vehicle: methylcellulose (MC) 108 % of control | dose: 45.0 mg/kg/injection, schedule: Q01DX Z (ip), vehicle: methylcellulose (MC) 113 % of control

Cc1cc(O)c(C(=O)/C=C/c2ccccc2)c(=O)[nH]1
inactive: [1] 86 % of control | [2] 96 % of control | [3] 92 % of control

O=C(c1ccccc1)C1C(C(=O)c2ccccc2)N1C1CCCCC1 (centres undefined)
inactive: [4] 91 % of control | [5] 91 % of control | [6] 96 % of control

CCCC(C)C(=O)Nc1cccc(OC(=O)NC(C)(C)C)c1 (centres undefined)
inactive: [7] 92 % of control | [8] 89 % of control | [9] 87 % of control

O=c1[nH]c(=O)c2nc[nH]c(=O)c2[nH]1
inactive: dose: 75.0 mg/kg/injection, schedule: Q01DX009 (ip), vehicle: Klucel (hydroxypropylcellulose) (HPC) 98 % of control | [4] 118 % of control | dose: 150.0 mg/kg/injection, schedule: Q01DX009 (ip), vehicle: Klucel (hydroxypropylcellulose) (HPC) 97 % of control | [5] 94 % of control | [6] 100 % of control

Cc1ccc(C)c(C(=O)CCC(=O)O)c1
inactive: dose: 25.0 mg/kg/injection, schedule: Q01DX009 (ip), vehicle: saline with Tween-80 100 % of control | dose: 50.0 mg/kg/injection, schedule: Q01DX009 (ip), vehicle: saline with Tween-80 96 % of control | [7] 105 % of control | [10] 95 % of control | [11] 91 % of control | [8] 94 % of control | [12] 95 % of control | [13] 92 % of control | [14] 95 % of control | [15] 97 % of control

CC(=O)OC1CCC2(C)C(=CCC3C2CCC2(C)C3CC(SCC(=O)O)C2SCC(=O)O)C1 (centres undefined)
inactive: dose: 100.0 mg/kg/injection, schedule: Q04DX003 (sc), vehicle: steriod suspending solution 98 % of control | dose: 200.0 mg/kg/injection, schedule: Q04DX003 (sc), vehicle: steriod suspending solution 106 % of control | dose: 400.0 mg/kg/injection, schedule: Q04DX003 (sc), vehicle: steriod suspending solution 106 % of control

CN(C)c1ccc(N=Cc2ccccc2O)cc1.[Co]
inactive: [16] 90 % of control | [17] 94 % of control | [18] 91 % of control

C=CCOCC(O)CO (centres undefined)
inactive: [10] 108 % of control | [12] 94 % of control | [14] 103 % of control

CC(C)CC(NS(=O)(=O)Cc1ccccc1)C(=O)NNc1ccccc1 (centres undefined)
inactive: [16] 97 % of control | dose: 100.0 mg/kg/injection, schedule: Q04DX003 (ip), vehicle: other 95 % of control | [17] 94 % of control | dose: 200.0 mg/kg/injection, schedule: Q04DX003 (ip), vehicle: other 91 % of control | [18] 92 % of control

OC(c1ccc(Cl)cc1)c1nc2ccccc2[nH]1 (centres undefined)
inactive: dose: 100.0 mg/kg/injection, schedule: Q04DX002 (ip), vehicle: Klucel (hydroxypropylcellulose) (HPC) 100 % of control | dose: 200.0 mg/kg/injection, schedule: Q04DX002 (ip), vehicle: Klucel (hydroxypropylcellulose) (HPC) 100 % of control | dose: 400.0 mg/kg/injection, schedule: Q04DX002 (ip), vehicle: Klucel (hydroxypropylcellulose) (HPC) 103 % of control

O=C(Nc1ccc(Br)c2c(NC(=O)c3ccccc3)ccc(Br)c12)c1ccccc1
inactive: dose: 50.0 mg/kg/injection, schedule: Q01DX001 (ip), vehicle: saline 110 % of control | [1] 101 % of control | [2] 95 % of control | [3] 98 % of control

c1ccc2cc(C3OCC4(CC4)CO3)ccc2c1
inactive: dose: 50.0 mg/kg/injection, schedule: Q01DX001 (ip), vehicle: Klucel (hydroxypropylcellulose) (HPC) 109 % of control | dose: 100.0 mg/kg/injection, schedule: Q01DX001 (ip), vehicle: Klucel (hydroxypropylcellulose) (HPC) 102 % of control | dose: 200.0 mg/kg/injection, schedule: Q01DX001 (ip), vehicle: Klucel (hydroxypropylcellulose) (HPC) 100 % of control

CCCOCCOCCOC(C)Oc1ccc(C(=O)OC)cc1 (centres undefined)
inactive: dose: 100.0 mg/kg/injection, schedule: Q04DX002 (ip), vehicle: saline 101 % of control | dose: 200.0 mg/kg/injection, schedule: Q04DX002 (ip), vehicle: saline 101 % of control | dose: 400.0 mg/kg/injection, schedule: Q04DX002 (ip), vehicle: saline 99 % of control

OCC1OC(n2c(N3CCCCC3)nc3ccccc32)C(O)C1O (centres undefined)
inactive: [1] 102 % of control | [2] 105 % of control | [3] 105 % of control

CCCNC(=O)Nc1cc(Cl)ccc1OC
inactive: [7] 100 % of control | [11] 95 % of control | [8] 94 % of control | [13] 103 % of control | [9] 96 % of control | [15] 94 % of control

COc1cc(/C=C\[N+](=O)[O-])ccc1O
inactive: dose: 25.0 mg/kg/injection, schedule: Q04DX003 (ip), vehicle: saline with Tween-80 93 % of control | dose: 50.0 mg/kg/injection, schedule: Q04DX003 (ip), vehicle: saline with Tween-80 96 % of control | [11] 95 % of control

O=C1c2ccccc2-c2cc(Cl)c(Cl)cc21
inactive: [4] 96 % of control | [5] 103 % of control | [6] 105 % of control

Cc1cc(OC(=O)Nc2ccc(F)cc2)c(C(C)C)cc1Cl
inactive: [19] 90 % of control | dose: 50.0 mg/kg/injection, schedule: Q01DX009 (ip), vehicle: carboxymethylcellulose (CMC) 99 % of control and 101 % of control | dose: 50.0 mg/kg/injection, schedule: Q04DX002 (ip), vehicle: carboxymethylcellulose (CMC) 93 % of control and 96 % of control | [20] 103 % of control | dose: 100.0 mg/kg/injection, schedule: Q01DX009 (ip), vehicle: carboxymethylcellulose (CMC) 96 % of control and 99 % of control | dose: 100.0 mg/kg/injection, schedule: Q04DX002 (ip), vehicle: carboxymethylcellulose (CMC) 100 % of control and 106 % of control | [21] 92 % of control | dose: 200.0 mg/kg/injection, schedule: Q01DX009 (ip), vehicle: carboxymethylcellulose (CMC) 94 % of control and 95 % of control | dose: 200.0 mg/kg/injection, schedule: Q04DX002 (ip), vehicle: carboxymethylcellulose (CMC) 95 % of control and 100 % of control

O=NN(CCF)C(=O)NC1CCCCCCCCCCC1
inactive: dose: 40.0 mg/kg/injection, schedule: Q01DX001 (ip), vehicle: other 108 % of control | dose: 60.0 mg/kg/injection, schedule: Q01DX001 (ip), vehicle: other 112 % of control

O=C=Nc1cccc(S(=O)(=O)F)c1
inactive: [19] 105 % of control | [20] 103 % of control | [21] 105 % of control | dose: 400.0 mg/kg/injection, schedule: Q01DX001 (ip), vehicle: carboxymethylcellulose (CMC) 97 % of control

CC(C)(CP(c1ccccc1)c1ccccc1)c1ccccc1
inactive: dose: 25.0 mg/kg/injection, schedule: Q04DX002 (ip), vehicle: saline with Tween-80 95 % of control | dose: 50.0 mg/kg/injection, schedule: Q04DX002 (ip), vehicle: saline with Tween-80 95 % of control | dose: 100.0 mg/kg/injection, schedule: Q04DX002 (ip), vehicle: saline with Tween-80 89 % of control | dose: 200.0 mg/kg/injection, schedule: Q04DX002 (ip), vehicle: saline with Tween-80 92 % of control

CCOCc1cc(Cc2cc(COCC)c3cccnc3c2O)c(O)c2ncccc12
inactive: dose: 75.0 mg/kg/injection, schedule: Q01DX001 (ip), vehicle: carboxymethylcellulose (CMC) 97 % of control | dose: 150.0 mg/kg/injection, schedule: Q01DX001 (ip), vehicle: carboxymethylcellulose (CMC) 105 % of control | dose: 300.0 mg/kg/injection, schedule: Q01DX001 (ip), vehicle: carboxymethylcellulose (CMC) 103 % of control

CNC(=O)C1OC(n2cnc3c(N)ncnc32)C2OC(C)(C)OC12 (centres undefined)
inactive: dose: 100.0 mg/kg/injection, schedule: Q01DX005 (ip), vehicle: saline 97 % of control | dose: 200.0 mg/kg/injection, schedule: Q01DX005 (ip), vehicle: saline 101 % of control
